Results reported in ChEMBL document CHEMBL1201862, “PubChem BioAssay data set” (2004).
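Step 1: Grow cells in 96-well plates. Step 2: Expose to compound for 48 hours at 5 concentrations. Step 3: Interpolate endpoints linearly; if unreached, use highest concentration. GI50 is the concentration that inhibits growth by half.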 Active and inactive are the calls of the source. Cut-off read from the data, not from the text of the source: active = GI50 up to about 1.1 µM and inactive = higher.

Experiments:
Assay in all cases: DTP human tumour cell line panel, 48 h
A549 = test system: A549
HOP-62 = test system: HOP-62
HCT-116 = test system: HCT-116
T47D = test system: T47D
SN12C = test system: SN12C
NCI-H23 = test system: NCI-H23
MOLT-4 = test system: MOLT-4
SW-620 = test system: SW-620
SK-MEL-5 = test system: SK-MEL-5
SF-295 = test system: SF-295
MCF7 = test system: MCF7
SF-539 = test system: SF-539
IGROV-1 = test system: IGROV-1
HL-60 = test system: HL-60
CCRF-CEM = test system: CCRF-CEM
MDA-MB-435 = test system: MDA-MB-435
COLO 205 = test system: COLO 205
Malme-3M = test system: Malme-3M
SNB-75 = test system: SNB-75

Measured: GI50

CC[C@@H]1CN2CCC1C[C@@H]2C(O)c1ccnc2ccc(OCCN3CCN(CCOc4ccc5nccc(C(O)[C@@H]6C[C@@H]7CCN6C[C@@H]7CC)c5c4)CC3)cc12 (stereo not given in full)
inactive: A549 15.3 µM | HOP-62 18.5 µM | HCT-116 14.2 µM | T47D 19.7 µM | SN12C 14.3 µM | NCI-H23 20.7 µM | MOLT-4 6.53 µM | SW-620 21.8 µM | SK-MEL-5 15 µM | SF-295 16.3 µM | MCF7 15.5 µM | SF-539 13.8 µM | IGROV-1 13.9 µM | HL-60 21.9 µM | CCRF-CEM 4.45 µM | MDA-MB-435 13.8 µM | COLO 205 14.7 µM | Malme-3M 24.8 µM

Clc1nc2n(c1/C=C/c1cccs1)CCS2
inactive: SNB-75 55 µM | A549 34.5 µM | HOP-62 53.7 µM | HCT-116 25.4 µM | T47D 17 µM | SN12C 31.4 µM | NCI-H23 29 µM | MOLT-4 11.3 µM | SW-620 26.9 µM | SK-MEL-5 17.1 µM | SF-295 29.6 µM | MCF7 30.8 µM | IGROV-1 32 µM | HL-60 6 µM | CCRF-CEM 10.9 µM | MDA-MB-435 31.1 µM | COLO 205 37.8 µM | Malme-3M 90.8 µM

CN1C(=S)C(c2ccccc2)Sc2ccccc21 (stereo not given)
inactive: SNB-75 35.7 µM | A549 84.3 µM | HOP-62 > 100 µM | HCT-116 38.8 µM | T47D 78.5 µM | SN12C > 100 µM | NCI-H23 55.7 µM | MOLT-4 7.29 µM | SK-MEL-5 34.8 µM | SF-295 17.4 µM | MCF7 48.8 µM | IGROV-1 > 100 µM | HL-60 87.5 µM | CCRF-CEM 8.77 µM | MDA-MB-435 57 µM | COLO 205 47.4 µM | Malme-3M 97.7 µM

O=C(O)CCSc1ncnc2[nH]cnc12
inactive: A549 > 100 µM | HOP-62 > 100 µM | HCT-116 > 100 µM | T47D > 100 µM | SN12C > 100 µM | NCI-H23 > 100 µM | MOLT-4 > 100 µM | SW-620 > 100 µM | SK-MEL-5 > 100 µM | SF-295 > 100 µM | MCF7 > 100 µM | SF-539 > 100 µM | IGROV-1 > 100 µM | HL-60 > 100 µM | CCRF-CEM > 100 µM | MDA-MB-435 > 100 µM | COLO 205 > 100 µM | Malme-3M > 100 µM

COc1ccc(N2C(=O)CC(Cl)C2=O)cc1 (stereo not given)
inactive: SNB-75 > 100 µM | A549 > 100 µM | HOP-62 > 100 µM | HCT-116 18.2 µM | T47D 18.9 µM | SN12C 17.5 µM | NCI-H23 23.3 µM | SW-620 18.7 µM | SK-MEL-5 > 100 µM | MCF7 60.1 µM | SF-539 18.2 µM | IGROV-1 > 100 µM | MDA-MB-435 > 100 µM | COLO 205 16.4 µM | Malme-3M 17.5 µM

COC(=O)CSc1nc2[nH]c(SC)c(C(N)=O)c2c(=O)n1-c1ccccc1
inactive: SNB-75 > 10 µM | A549 > 10 µM | HOP-62 > 10 µM | T47D > 10 µM | SN12C > 10 µM | NCI-H23 > 10 µM | MOLT-4 > 10 µM | SW-620 > 10 µM | SK-MEL-5 > 10 µM | SF-295 > 10 µM | MCF7 > 10 µM | IGROV-1 > 10 µM | HL-60 > 10 µM | CCRF-CEM > 10 µM | MDA-MB-435 > 10 µM | COLO 205 > 10 µM | Malme-3M > 10 µM

COc1ccc2c(n1)Sc1nc3ccccc3nc1N2
inactive: SNB-75 25.5 µM | A549 > 100 µM | HOP-62 16.1 µM | HCT-116 33.7 µM | T47D > 100 µM | SN12C 21 µM | NCI-H23 17.9 µM | MOLT-4 13.8 µM | SW-620 > 100 µM | SK-MEL-5 > 100 µM | SF-295 26.7 µM | MCF7 65.2 µM | SF-539 14.4 µM | IGROV-1 5.92 µM | CCRF-CEM 29.4 µM | MDA-MB-435 55.1 µM | COLO 205 > 100 µM | Malme-3M 29 µM

O=C(O)[C@@]1(Cc2ccc(O)cc2)C[C@@H]2Cc3ccccc3N2N1
inactive: A549 > 100 µM | HOP-62 > 100 µM | HCT-116 > 100 µM | T47D > 100 µM | SN12C > 100 µM | NCI-H23 > 100 µM | MOLT-4 > 100 µM | SW-620 > 100 µM | SK-MEL-5 > 100 µM | SF-295 > 100 µM | MCF7 > 100 µM | SF-539 > 100 µM | IGROV-1 > 100 µM | HL-60 > 100 µM | CCRF-CEM > 100 µM | MDA-MB-435 > 100 µM | COLO 205 > 100 µM | Malme-3M > 100 µM

COc1ccc(Nc2nc(NNC(=O)Cc3ccccc3)nc(NNC(=O)c3ccncc3)n2)cc1
inactive: SNB-75 > 10 µM | A549 > 10 µM | HOP-62 > 10 µM | HCT-116 > 10 µM | T47D > 10 µM | SN12C > 10 µM | NCI-H23 > 10 µM | MOLT-4 > 10 µM | SW-620 > 10 µM | SK-MEL-5 > 10 µM | SF-295 > 10 µM | MCF7 > 10 µM | SF-539 > 10 µM | IGROV-1 > 10 µM | CCRF-CEM > 10 µM | MDA-MB-435 > 10 µM | COLO 205 > 10 µM | Malme-3M > 10 µM

O=[N+]([O-])C(=C1NCCN1)/C(Cl)=C(/Cl)N1CCOCC1
inactive: SNB-75 > 100 µM | A549 > 100 µM | HOP-62 > 100 µM | HCT-116 > 100 µM | T47D > 100 µM | SN12C > 100 µM | NCI-H23 > 100 µM | MOLT-4 > 100 µM | SW-620 > 100 µM | SF-295 > 100 µM | MCF7 > 100 µM | SF-539 > 100 µM | CCRF-CEM > 100 µM | MDA-MB-435 > 100 µM | COLO 205 > 100 µM | Malme-3M > 100 µM

NC(CC1=CS(=O)(=O)c2ccc(Cl)cc21)C(=O)O (stereo not given)
inactive: SNB-75 20.6 µM | A549 > 100 µM | HOP-62 > 100 µM | HCT-116 > 100 µM | T47D > 100 µM | SN12C > 100 µM | NCI-H23 > 100 µM | MOLT-4 > 100 µM | SW-620 > 100 µM | SK-MEL-5 > 100 µM | SF-295 83.6 µM | MCF7 92.3 µM | SF-539 > 100 µM | IGROV-1 > 100 µM | MDA-MB-435 > 100 µM | COLO 205 > 100 µM | Malme-3M 76.7 µM
